Measured values: PMC4773869, “Influence of plasma-activated compounds on melanogenesis and tyrosinase activity” (Scientific Reports, 2016)

Target: T1, mushroom tyrosinase (Agaricus bisporus, UniProt C7FF04)
Test: Mushroom tyrosinase inhibition assay (L-DOPA, dopachrome at 492 nm)
Assay type: biochemical
Parameters: purchased Sigma Chemical Co. USA
Conditions: Con: as-synthesized, before plasma treatment; cell-free; mean ± SD; read-out: Tyrosinase inhibitory activity IC50 (converted)
Protocol: To determine the action of ED and PAED, we checked the mushroom tyrosinase inhibitory activity in a cell-free environment. […] Moreover, after plasma treatment for different time intervals, we observed that inhibition activity of 4a, 4b, 4d and 6a was improved more as compared to without treatment. […] However, we observed the highest relative improvement in IC50 value of compound 4b among all ED compounds at 10 min plasma treatment. […] Therefore, we used the 4b and 6a compounds for further investigations, based on the decrease in IC50 value to a global minimum of the experiment after plasma treatment.
The mushroom tyrosinase was used for in vitro bioassays as described previously with some modifications. Briefly, 140 μl of phosphate buffer (20 mM, pH 6.8), 20 μl of mushroom tyrosinase (30 U/ml), and 20 μl of the inhibitor solution were placed in the wells of a 96-well plate. After pre-incubation for 10 min at room temperature, 20 μl of L-DOPA (3,4-dihydroxyphenylalanine) (0.85 mM) was added and the plate was further incubated at 25 °C for 20 min. Subsequently the absorbance of dopachrome was measured at 492 nm using a micro plate reader (OPTI Max, Tunable). Kojic acid was used as a reference inhibitor. The extent of inhibition by the test compounds was expressed as the […] necessary to achieve 50% inhibition (IC50). Each concentration was analyzed in three independent experiments run in triplicate. The IC50 values were determined by the data analysis and graphing software, Origin.
Target sequence in this assay (C7FF04 1-392): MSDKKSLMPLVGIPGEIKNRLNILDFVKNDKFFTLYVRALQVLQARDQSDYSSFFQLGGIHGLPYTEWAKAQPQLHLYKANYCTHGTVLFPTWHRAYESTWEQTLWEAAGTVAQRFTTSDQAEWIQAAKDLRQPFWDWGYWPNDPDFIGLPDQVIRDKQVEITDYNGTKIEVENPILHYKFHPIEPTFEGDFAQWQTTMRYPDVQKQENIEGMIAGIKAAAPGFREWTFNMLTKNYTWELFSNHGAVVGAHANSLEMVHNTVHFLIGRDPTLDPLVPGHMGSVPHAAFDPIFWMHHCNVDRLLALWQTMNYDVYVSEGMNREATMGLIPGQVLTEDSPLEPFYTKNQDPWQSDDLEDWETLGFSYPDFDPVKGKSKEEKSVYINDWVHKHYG

SMILES | IC50 [µM]
C=CCc1ccc(OC(=O)COC(=O)c2ccc(O)c(O)c2)c(OC)c1 [4d, 2-[2-methoxy-4-(prop-2-en-1-yl)phenoxy]-2-oxoethyl 3,4-dihydroxybenzoate] | 162

Same assay, conditions: compound after 3 min N2 APPJ plasma treatment; mean ± SD; read-out: Tyrosinase inhibitory activity IC50 (converted)

SMILES | IC50 [µM]
C=CCc1ccc(OC(=O)COC(=O)c2ccc(O)c(O)c2)c(OC)c1 [4d, 2-[2-methoxy-4-(prop-2-en-1-yl)phenoxy]-2-oxoethyl 3,4-dihydroxybenzoate] | 131

Same assay, conditions: compound after 5 min N2 APPJ plasma treatment; mean ± SD; read-out: Tyrosinase inhibitory activity IC50 (converted)

SMILES | IC50 [µM]
C=CCc1ccc(OC(=O)COC(=O)c2ccc(O)c(O)c2)c(OC)c1 [4d, 2-[2-methoxy-4-(prop-2-en-1-yl)phenoxy]-2-oxoethyl 3,4-dihydroxybenzoate] | 100

Same assay, conditions: compound after 10 min N2 APPJ plasma treatment; mean ± SD; read-out: Tyrosinase inhibitory activity IC50 (converted)

SMILES | IC50 [µM]
C=CCc1ccc(OC(=O)COC(=O)c2ccc(O)c(O)c2)c(OC)c1 [4d, 2-[2-methoxy-4-(prop-2-en-1-yl)phenoxy]-2-oxoethyl 3,4-dihydroxybenzoate] | 80.9

Tested on: not given
Test: not given
Conditions: not given

SMILES | melting point [°C]
C=CCc1ccc(OC(=O)COC(=O)c2ccc(O)c(O)c2)c(OC)c1 [4d, 2-[2-methoxy-4-(prop-2-en-1-yl)phenoxy]-2-oxoethyl 3,4-dihydroxybenzoate] | 148 to 151

Tested on: B16F10 cells
Test: Intracellular melanin content measurement
Assay type: cell-based, murine
Conditions: 10 min plasma-treated; presence of α-MSH
Protocol: Melanoma (1.5 × 10^5) cells were seeded in cell culture plates and allowed to attach for 24 hr. Then each eugenol derivative was added and tested separately for melanin activation after 24 hr of incubation. After incubation, cells were detached using trypsin/EDTA and centrifuged at 1000 rpm for 5 min to collect the cell pellets. The cell pellets were solubilized in 1N NaOH at 60 °C for 1 hr. The melanin content was measured spectrophotometrically at 405 nm wavelength using a microplate reader (BioTek, synergy HT)[56]. […] Plasma-treated and non-plasma-treated ED (4b and 6a) were added to the cells, pre-incubated with or without α-MSH (100 nM) for a further 24 hr and melanin content was assayed as described above. Kojic acid can inhibit and α-MSH can stimulate the melanin in the cells, therefore we used them as negative and positive controls.

SMILES | melanin synthesis, % of control (100%) [%]
O=C(COC(=O)c1ccc(O)cc1)Oc1ccc(C(=O)/C=C/O)cc1OCO [Plasma treated 4b] | 188

Same assay, conditions: Mus musculus, B16-F10; 250 μg/ml; absence of α-MSH; negative control; read-out: inhibition of melanin synthesis compared to the control

SMILES | inhibition at 250 µg/mL [%]
O=c1cc(CO)occ1O [Kojic acid, reference compound] | ~12

Same assay, conditions: as-synthesized ED; no α-MSH; concentration not given

SMILES | melanin, % of control (normalized to 100%) [%]
C=CCc1ccc(OC(=O)COC(=O)c2ccc(O)c(O)c2)c(OC)c1 [4d, 2-[2-methoxy-4-(prop-2-en-1-yl)phenoxy]-2-oxoethyl 3,4-dihydroxybenzoate] | 110

Target: T1, mushroom tyrosinase
Test: Circular dichroism analysis of the secondary structure of mushroom tyrosinase
Conditions: tyrosinase + 10 min plasma-treated compound, 0.1 mM; enzyme alone 7
Protocol: The structural changes in tyrosinase after incubation with ED and PAED were plotted in Fig. 5. […] We observed that the control tyrosinase enzyme has 16% α-helix, 33% β-sheets, 7% turn, and 44% random coil. After the interaction with 4a, the amount of α-helix changed to 15% and β-sheets changed to 35%. On the other hand, after the plasma treatment of 4a the amount of α-helix changed to 17% and β-sheets changed to 31%. While, after interacting with 4b, the amount of α-helix is 16.0%, β-sheets 29%, turn 10%, and random coil is 45.0%. However, plasma-activated 4b interacts differently with tyrosinase enzyme, showing 16% α-helix, 33% β-sheets, 6% turn, and 45% random coil. When 6a ED interacted with tyrosinase enzyme, we observed 20% α-helix, 25% β-sheets, 11.0% turn, and 44% random coil. However, 6a PAED interacts with tyrosinase enzyme, the α-helix changed to 19%, β-sheets 28%, turn 9%, and random coil 44%. […] To obtain further detail on the interaction of the ED with tyrosinase enzyme, we studied the molecular docking. For the CD spectroscopic studies[65][66][67] a J-815 spectrophotometer (Jasco, Japan) was used, equipped with a Peltier system that controlled the temperature. (1S)-(+)-10-camphorsulfonic acid (Aldrich, Milwaukee, WI) with a molar extinction coefficient of 34.5 M/cm at 285 nm and a 2.36 M/cm molar ellipticity (θ) at 295 nm was used for the CD calibrations. The samples were pre-equilibrated at the desired temperature for 15 min, and the scan speed was fixed for adaptative sampling (error F 0.01) with a response time of 1 sec and a 1 nm bandwidth. The secondary structure of the mushroom tyrosinase was monitored by using a 1.0 cm path length cuvette. The mushroom tyrosinase (0.2 mg/ml) was prepared in phosphate buffer (20 mM) at pH 6.8 for CD analysis. We used the 0.1 mM concentration of all derivatives in 1 ml buffer solution, with or without 10 min plasma treatment. All spectra were collected in triplicate from 200 to 250 nm and the background was corrected against the buffer (blank). The percentages of secondary structures of proteins were calculated using inbuilt Jasco software.
Target sequence in this assay (C7FF04 2-392): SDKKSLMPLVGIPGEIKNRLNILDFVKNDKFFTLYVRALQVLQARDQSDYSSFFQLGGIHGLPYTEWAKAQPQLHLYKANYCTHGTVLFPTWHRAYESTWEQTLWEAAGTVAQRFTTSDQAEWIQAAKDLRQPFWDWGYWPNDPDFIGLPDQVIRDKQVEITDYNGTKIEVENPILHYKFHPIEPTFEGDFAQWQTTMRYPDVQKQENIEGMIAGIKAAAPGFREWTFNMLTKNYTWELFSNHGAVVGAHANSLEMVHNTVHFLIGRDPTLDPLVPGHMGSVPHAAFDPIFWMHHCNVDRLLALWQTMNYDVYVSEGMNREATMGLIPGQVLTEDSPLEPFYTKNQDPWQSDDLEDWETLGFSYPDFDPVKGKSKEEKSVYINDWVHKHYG

SMILES | Turn % of tyrosinase [%]
C=CC(=O)c1ccc(OC(=O)COC(=O)/C=C/c2ccc(O)cc2)c(OC)c1 [Plasma treated 6a] | 9
O=C(COC(=O)c1ccc(O)cc1)Oc1ccc(C(=O)/C=C/O)cc1OCO [Plasma treated 4b] | 6

Same assay, conditions: tyrosinase + 10 min plasma-treated compound, 0.1 mM; enzyme alone 16

SMILES | α-helix % of tyrosinase [%]
C=CC(=O)c1ccc(OC(=O)COC(=O)/C=C/c2ccc(O)cc2)c(OC)c1 [Plasma treated 6a] | 19
O=C(COC(=O)c1ccc(O)cc1)Oc1ccc(C(=O)/C=C/O)cc1OCO [Plasma treated 4b] | 16

Same assay, conditions: tyrosinase + 10 min plasma-treated compound, 0.1 mM; enzyme alone 33

SMILES | β-sheet % of tyrosinase [%]
C=CC(=O)c1ccc(OC(=O)COC(=O)/C=C/c2ccc(O)cc2)c(OC)c1 [Plasma treated 6a] | 28
O=C(COC(=O)c1ccc(O)cc1)Oc1ccc(C(=O)/C=C/O)cc1OCO [Plasma treated 4b] | 33

Same assay, conditions: tyrosinase + 10 min plasma-treated compound, 0.1 mM; enzyme alone 44

SMILES | Random coil % of tyrosinase [%]
C=CC(=O)c1ccc(OC(=O)COC(=O)/C=C/c2ccc(O)cc2)c(OC)c1 [Plasma treated 6a] | 44
O=C(COC(=O)c1ccc(O)cc1)Oc1ccc(C(=O)/C=C/O)cc1OCO [Plasma treated 4b] | 45

Same assay, conditions: tyrosinase + as-synthesized compound (0 min plasma), 0.1 mM; enzyme alone 7

SMILES | Turn % of tyrosinase [%]
C=CCc1ccc(OC(=O)COC(=O)c2ccc(O)c(O)c2)c(OC)c1 [4d, 2-[2-methoxy-4-(prop-2-en-1-yl)phenoxy]-2-oxoethyl 3,4-dihydroxybenzoate] | 7

Same assay, conditions: tyrosinase + as-synthesized compound (0 min plasma), 0.1 mM; enzyme alone 16

SMILES | α-helix % of tyrosinase [%]
C=CCc1ccc(OC(=O)COC(=O)c2ccc(O)c(O)c2)c(OC)c1 [4d, 2-[2-methoxy-4-(prop-2-en-1-yl)phenoxy]-2-oxoethyl 3,4-dihydroxybenzoate] | 15

Same assay, conditions: tyrosinase + as-synthesized compound (0 min plasma), 0.1 mM; enzyme alone 33

SMILES | β-sheet % of tyrosinase [%]
C=CCc1ccc(OC(=O)COC(=O)c2ccc(O)c(O)c2)c(OC)c1 [4d, 2-[2-methoxy-4-(prop-2-en-1-yl)phenoxy]-2-oxoethyl 3,4-dihydroxybenzoate] | 33

Same assay, conditions: tyrosinase + as-synthesized compound (0 min plasma), 0.1 mM; enzyme alone 44

SMILES | Random coil % of tyrosinase [%]
C=CCc1ccc(OC(=O)COC(=O)c2ccc(O)c(O)c2)c(OC)c1 [4d, 2-[2-methoxy-4-(prop-2-en-1-yl)phenoxy]-2-oxoethyl 3,4-dihydroxybenzoate] | 45
